According to US20100330081A1, “CRIPTO BINDING MOLECULES” (priority 2007, published 2010):

Tested on: CT-3 xenograft tumors (primary human colon tumor)
Assay: CT-3 human colon tumor xenograft, combination with 5-fluorouracil (Example 2)
Type: in vivo, mice
Conditions: 5-fluorouracil alone, single dose 30 mg/kg/inj IV Day 15; study terminated Day 34
Excerpt: Two hundred eighteen (218) female SCID beige (C.B.-17/IcrHsd-Prkcd Lyst Skid Beige) mice (Harlan Sprague Dawley, Madison, Wis.) were started on the study at six to seven weeks of age. Animals were acclimated to the laboratory for at least two days prior to implantation of the tumor. Housing was in ventilated cage racks, and food and water were allowed ad libitum.
CT-3 tumor fragments from a primary human colon tumor were originally obtained from Sera Care, Inc (Oceanside, Calif.) (sent by Peter Chu, Biogen Idec, San Diego). A serially transplanted in-vivo xenograft line was established at Biogen Idec, Inc. and fragments from the third xenograft generation were cryopreserved. […]
On Day −1, the mice were implanted with BioMedics animal ID chips (Model IMI-1000; Seaford, Del.) SC on the left flank. […] Tumor size and body weight measurements were recorded at least twice weekly beginning on […]. When the tumors measured a minimum of 100 mg (Day 15), mice were randomized to treatment and control groups (see Table 2) based on tumor size and excluding tumors with non-progressive growth. […]
Tumor measurements were determined using digital calipers. Body weights and tumor size measurements were recorded on Day 6 and were continued twice weekly until the termination of the study. […]

## O=c1[nH]cc(F)c(=O)[nH]1 [5-fluorouracil]
  inhibition of tumor growth (change in tumor weight): significantly inhibited tumor growth throughout the study
